Assay results: patent publication US20260176636A1, “APTAMER-DIRECT INHIBITOR CONJUGATES AND METHODS OF USING THE SAME” (Duke University, priority 2022, published 2026)
“Also recorded” adds a separate entry of the source. [invdT] = inverted (3'-3') thymidine

Assays:
human thrombin = details: approximately 1 μM; cited from earlier work
normal human plasma [1] = assay: Thrombin time (TT) plasma coagulation assay
Description: (§1) Plasma coagulation assays: Thrombin time (TT), prothrombin time (PT), and activated partial thromboplastin time (aPTT) assays were performed in citrated normal human plasma on a hemostasis coagulation analyzer (Diagnostica Stago). For TT, 5 μL of inhibitors in the reaction buffer were mixed with 100 μL of plasma and incubated at 37° C. for 5 min. 50 μL of thrombin (6 NIH units/ml) in the reaction buffer was then added to initiate clotting. For PT, 5 μl of inhibitors in the reaction buffer were mixed with 50 μL of plasma and incubated at 37° C. for 5 min. 100 μL of TriniCLOT PT Excel S reagent was then added to initiate clotting. For aPTT, 5 μL of inhibitors in the reaction buffer were mixed with 50 μL of plasma and incubated at 37° C. for 5 min, 50 μL of TriniCLOT aPTT S reagents was then added followed by another 5 min incubation at 37° C. Finally, 50 μL of 20 mM CaCl2) was added to initiate clotting. To characterize antidote reversal of HD22-7A-DAB in the above assays, 5 μL AO2 (finial concentration 2 μM) in the reaction buffer was added after 5-min incubation between plasma and HD22-7A-DAB, followed by another 5 min of incubation before the next step. All assays are performed induplicates.

whole human blood = assay: Active clotting time (ACT)
Description: Active clotting time (ACT): Citrated blood (72 μL) freshly collected from heathy donors were incubated with 6 μL inhibitors reconstituted in the reaction buffer at room temperature for 3 min following addition of 2.1 μL CaCl2) (245 mM). The blood mixture was then immediately analyzed on an ACT+ cuvette (Accriva Diagnostics) using a Hemochron Jr Signature (Instrumentation Laboratory). The assay was performed with a N value of five. One-way ANOVA test was used to compare between two sets of data.

Human alpha thrombin = Human alpha thrombin (Homo sapiens, UniProt P00734); assay: Fluorogenic activity assay (fluorescent peptidyl substrate cleavage), thrombin
Description: Initial velocity studies of fluorescent peptidyl substrate cleavage by thrombin were used to assess protease inhibition by the EXACT inhibitor (FIG. 1c).
Fluorogenic activity assay: All reagents were freshly reconstituted in the reaction buffer (20 mM HEPES, 150 mM NaCl, and 2 mM CaCl2), 0.02%, Tween 20, pH 7.5) before the assay. 10 μL of thrombin or factor Xa (final concentration 0.5 nM) were first incubated with 5 μL of inhibitor, inhibitor/antidote mixture, or buffer control on a 384-well opaque plate for 5 min at 28° C. 10 μL of fluorogenic substrate (final concentration 50 μM) was then added to the mixture and the time-course fluorescence (λex=352 nm, λem=470 nm) of the sample were recorded every minute for 15 min at 28° C. using a SpectraMax i3 microplate reader (Molecular Devices). The catalytic rate of the protease was quantified by the slope from linear regression of the time-dependent fluorescence intensity and normalized with the sample containing no inhibitor as 100%. Each experiment was performed in triplicates.

[2] = Plasma stability (nuclease degradation, denaturing PAGE); assay type: in vitro ADME; details: 500 nM conjugate in human plasma (10 U/mL heparin), 37° C.
Description: FIG. 16. End modification of aptamer for higher plasma stability. (a) 3′ modification of HD22-DAB conjugate with invdT or cholesterol modification retain high inhibition potency to thrombin in fluorogenic substrate assay. (b) End modification of HD22-7A-DAB with 3′ invdT or cholesterol prolong […] in plasma. Plasma was prepared from whole blood collected from healthy volunteers that was supplemented with 10 U/mL of heparin to prevent coagulation. 500 nM of aptamer-drug conjugate were incubated with 200 μL of the plasma at 37° C. 20 μL of plasma reaction was collected at different time point (0, 10, 30, 60, 120, 360 min) and immediately vortexed with 100 μL phosphate buffer saline, 100 μL chloroform, and 200 μL methanol to quench nucleases. A mixture of 100 μL water and 100 μL chloroform was further added to extract the nucleic acids. The mixture was vortexed and centrifuged 500 rcf×20 min, and the aqueous phase containing nucleic acids was collected, lyophilized, reconstituted in water, and analyzed on a 15% polyacrylamide gel containing 7M urea.

[3] = molecular target: T1, thrombin (FVIII activation) (Homo sapiens, UniProt P00734); assay: Thrombin cleavage of FVIII (SDS-PAGE); assay type: biochemical; details: 100 nM inhibitor, 1 nM thrombin, 100 nM FVIII
T1 construct: Human alpha thrombin, human factor Xa, and human fibrinogen were purchased from Haematologic Technologies Inc; purchased Haematologic Technologies Inc
Description: Thrombin (final concentration 1 nM) was incubated in the absence or presence of thrombin inhibitors (final concentration 100 nM) at 37° C. for 5 min following by addition of recombinant human FVIII (final concentration 100 nM). Sample were collected at 1, 2, 5, 10, 20, 30, 40, and 60 min of reaction and quenched in SDS loading buffer and heating at 95° C. for 5 min. The digestion products at different time points are then characterized on a 4-20% PAGE gel. Thrombin's activity on activating FVIII in the absence and presence of thrombin inhibitors were quantified using the time-course concentration of intact light chain under thrombin digestion determined by band intensity. The assay was performed in duplicates.

[4] = molecular target: T2, thrombin (cleavage of fibrinogen) (Homo sapiens, UniProt P00734); assay: Fibrinogen turbidity assay; assay type: biochemical; details: 50 nM inhibitor, 2.5 nM thrombin, 0.8 mg/mL fibrinogen, absorbance 550 nm
T2 construct: Human alpha thrombin, human factor Xa, and human fibrinogen were purchased from Haematologic Technologies Inc; purchased Haematologic Technologies Inc
Description: To test the kinetics of antidote reversal, 1 μL AO2 (final concentration 2 μM) was added to the reaction 10 min after fibrinogen addition. The maximum absorption over the period of assay in the absence and presence of different inhibitors were determined. The time to reach 10%, 50%, and 90% maximum absorption increase from the start point were calculated and recorded as lag time, t50, and t90, respectively, for each inhibitor to evaluate the kinetic of fibrinogen activation. Each experiment was performed in triplicates to determine the mean and standard deviation of each parameter.

normal human plasma [5] = assay: Prothrombin time (PT) plasma coagulation assay; details: normal human plasma; comparison with DAB at 500 nM
Description: as §1

thrombin = thrombin (Homo sapiens, UniProt P00734); assay: Bio-layer interferometry; assay type: binding; design: Human alpha thrombin, human factor Xa, and human fibrinogen were purchased from Haematologic Technologies Inc; purchased Haematologic Technologies Inc
Description: Bio-layer interferometry: Bio-layer inferometry was performed using Octet R8 BLI System (Sartorius). Briefly, 3.3 nM of biotinylated HD22-7A-DAB, HD22-7A-NH2, HD23-7A-DAB, and HD23-7A-NH2 were immobilized to Octet streptavidin biosensors (Sartorius). […] A 30-min dissociation was performed in buffer containing 200 nM HD22-7A-DAB. The existence of free HD22-7A-DAB in dissociation buffer prevents re-binding of thrombin and provides more accurate koff measurements.

normal human plasma [6] = assay: Activated partial thromboplastin time (aPTT) plasma coagulation assay; details: normal human plasma; comparison with DAB at 500 nM
Description: as §1

Tog25t: thrombin exosite II-targeting RNA aptamer, SEQ ID NO: 12 (GGGAACAAAGCUGAAGUACUUACCC; [invdT] at 3' end, other sugars and backbone not given here; further chemistry not fully specified)
effect on aPTT clotting time (human thrombin): modest extension in aPTT clotting time

HD22-7A-DAB
TT clotting time (normal human plasma [1]; 31 nM): > 999 s | effect on TT at inhibitor concentration lower than the added thrombin (normal human plasma [1]; below 13.4 nM): limited effect on TT | TT clotting time (measurable range of analyzer) (normal human plasma [1]; concentration exceeds 16 nM): > 999 s | effect on TT, result in words (normal human plasma [1]; normal human plasma): rivals UFH | ACT compared with 5 U/mL UFH (whole human blood; 1 μM): comparable to | ACT compared with 5 U/mL UFH (whole human blood; 2 μM): significantly higher than | ACT (measurable range of analyzer) (whole human blood; 2 μM, whole blood): > 999 s | ACT (whole human blood; 1-μM concentration, whole human blood): 624 s | effect on ACT, result in words (whole human blood; whole human blood): dose dependently prolonged ACT; also recorded: significantly higher than the ACTs that followed the addition of DAB, HD22, or their equimolar mixture | thrombin inhibition at a concentration of 1 nM (Human alpha thrombin; 1 nM inhibitor): completely inhibits thrombin activity | thrombin inhibition, result in words (Human alpha thrombin; fluorogenic substrate assay): significantly higher inhibitory effect of thrombin than DAB, HD22, or their equimolar mixture | potency higher than DAB (Human alpha thrombin; ratio of IC50 against thrombin): 500 fold | maximum inhibition of thrombin activity (Human alpha thrombin; thrombin 0.5 nM, fluorogenic substrate): > 99% | half-life in plasma [2]: around 1 hour | inhibition of thrombin-mediated FVIII cleavage, result in words [3]: no proteolysis was observed for over one hour | inhibition of thrombin-mediated fibrin clot formation, result in words [4]: completely inhibited | effect on PT, result in words (normal human plasma [5]): significantly longer than the same concentration of DAB; also recorded: rivals UFH | koff for thrombin binding (thrombin; dissociation in buffer with 200 nM HD22-7A-DAB): 0.0021 s⁻¹ | kon for thrombin binding (thrombin; immobilized biotinylated inhibitor): 3.9e+07 M⁻¹ s⁻¹ | effect on aPTT, result in words (normal human plasma [6]): significantly longer than the same concentration of DAB; also recorded: weaker anticoagulant than UFH
